From US20230295157A1, “3-(1H-IMIDAZOL-2-YL)-2,3,8,8A-TETRAHYDROINDOLIZIN-5(1H)-ONE DERIVATIVES USEFUL AS FACTOR XIA INHIBITORS” (JANSSEN PHARMACEUTICA NV, priority 2020, published 2023) come the findings set out here.

One may read the IC50 as the concentration needed to halve the response being measured.

Where two headings read alike, the source gives them in different places. Where only a bound is given, the exact number is not on record here.

One test has as its target Factor XIa (Homo sapiens (Human), UniProt P03951). The test is described as follows: Factor XIa inhibition assay (FLINT) utilizing a fluorophore-quencher pair peptide substrate. In kind it is biochemical. As to conditions: 30 min preincubation, kinetic reads over 30 min, 5Fam-KLTRAETV-K5Tamra substrate 15 μM; read-out: FXIa Kin Inh IC50. Put shortly:
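FXIa ([…]) preincubated 30 min with compound (11-point 3-fold dilution, top 100 nM, 2% DMSO), then 15 μM quenched FXI Arg146-based peptide added; Tris pH 7.5, CaCl2, BSA, CHAPS. Fluorescence 485/520 nm read kinetically every 5 min over 30 min at RT; IC50 by 4-parameter fit.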

The target of another test is human plasma kallikrein (Homo sapiens (Human), UniProt P03952). The test is described as follows: Kallikrein inhibition assay (FLINT) utilizing a quenched AMC peptide substrate. The class given is biochemical. As to conditions: 30 min preincubation, read-out: Kallikrein Kin Inh IC50. The procedure, abridged:
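Fluorogenic Z-Gly-Pro-Arg-AMC cleavage (50 μM substrate, 2 nM kallikrein, Tris pH 7.5, CaCl2, BSA, CHAPS, 2% DMSO) read kinetically at 340/440 nm for 30 min after 30-min compound pre-incubation. Compounds in 11-point 3-fold series from 1 μM; percent inhibition fitted to four-parameter equation for IC50.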

[1] abbreviates: kinetic reads over 30 min, Z-Gly-Pro-Arg-AMC substrate 50 μM.

Factor XIa, sequence (P03951 388-625): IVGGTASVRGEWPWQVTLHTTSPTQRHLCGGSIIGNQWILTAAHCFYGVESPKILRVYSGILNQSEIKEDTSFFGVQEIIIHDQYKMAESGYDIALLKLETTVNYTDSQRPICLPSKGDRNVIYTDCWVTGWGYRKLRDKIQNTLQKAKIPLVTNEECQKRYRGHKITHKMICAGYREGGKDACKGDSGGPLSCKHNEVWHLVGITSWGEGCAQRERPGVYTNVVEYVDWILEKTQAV
Factor XIa, sequence (P03951 19-387 partner): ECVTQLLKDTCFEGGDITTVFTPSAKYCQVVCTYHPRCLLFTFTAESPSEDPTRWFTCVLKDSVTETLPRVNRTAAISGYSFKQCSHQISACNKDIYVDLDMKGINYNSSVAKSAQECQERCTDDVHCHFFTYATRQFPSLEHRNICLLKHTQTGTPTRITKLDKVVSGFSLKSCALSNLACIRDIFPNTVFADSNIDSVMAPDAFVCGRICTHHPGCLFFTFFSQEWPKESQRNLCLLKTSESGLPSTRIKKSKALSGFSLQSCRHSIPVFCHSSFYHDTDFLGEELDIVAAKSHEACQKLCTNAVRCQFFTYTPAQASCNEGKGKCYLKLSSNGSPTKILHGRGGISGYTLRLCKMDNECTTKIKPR
human plasma kallikrein, sequence (P03952 391-638): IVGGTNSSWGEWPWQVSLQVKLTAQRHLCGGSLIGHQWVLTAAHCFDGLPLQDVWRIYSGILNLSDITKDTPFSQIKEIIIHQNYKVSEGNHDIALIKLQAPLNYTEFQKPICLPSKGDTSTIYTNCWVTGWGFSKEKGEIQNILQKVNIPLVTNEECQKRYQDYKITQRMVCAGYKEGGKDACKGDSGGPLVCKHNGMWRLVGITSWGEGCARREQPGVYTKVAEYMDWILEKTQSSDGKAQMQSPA
human plasma kallikrein, sequence (P03952 20-390 partner): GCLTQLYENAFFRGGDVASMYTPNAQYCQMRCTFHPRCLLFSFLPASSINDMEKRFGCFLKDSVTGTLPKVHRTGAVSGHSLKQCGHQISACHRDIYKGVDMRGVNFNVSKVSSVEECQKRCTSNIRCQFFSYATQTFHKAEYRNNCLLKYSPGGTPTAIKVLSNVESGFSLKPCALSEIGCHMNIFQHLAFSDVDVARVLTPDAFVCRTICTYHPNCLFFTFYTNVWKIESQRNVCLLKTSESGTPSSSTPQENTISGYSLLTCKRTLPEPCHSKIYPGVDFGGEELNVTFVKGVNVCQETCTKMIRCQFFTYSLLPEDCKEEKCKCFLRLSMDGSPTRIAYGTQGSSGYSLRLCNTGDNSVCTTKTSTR

`O=C1C=C(c2c(-n3cnnn3)ccc(Cl)c2F)C[C@H]2CC[C@@H](c3ncc(-c4ccnc5c4OCCO5)[nH]3)N12` [Example 361, (3S,8aR)-7-[3-chloro-2-fluoro-6-(tetrazol-1-yl)phenyl]-3-[5-(2,3-dihydro-[1,4]dioxino[2,3-b]pyridin-8-yl)-1H-imidazol-2-yl]-2,3,8,8a-tetrahydro-1H-indolizin-5-one]: the half-inhibitory concentration (IC50) turned out to be 0.7 nM at Factor XIa and 0.0061 µM at human plasma kallikrein (setting [1]).

On to `Nc1ccc(-c2cnc([C@@H]3CCC4CC(c5c(-c6ccn[nH]6)ccc(Cl)c5F)=CC(=O)N43)[nH]2)c(F)n1` (stereo partly drawn) [Example 363, (3S)-3-(5-(6-Amino-2-fluoropyridin-3-yl)-1H-imidazol-2-yl)-7-(3-chloro-2-fluoro-6-(1H-pyrazol-5-yl)phenyl)-2,3,8,8a-tetrahydroindolizin-5(1H)-one], for which the half-inhibitory concentration (IC50) at Factor XIa is > 100 nM; at human plasma kallikrein (μM, kinetic reads), > 1 µM.

Take `Nc1ccc(-c2c[nH]c([C@@H]3CCC4CC(c5c(-c6cnc[nH]6)ccc(Cl)c5F)=CC(=O)N43)n2)c(F)n1` (stereo partly drawn) [Example 364, (3S)-3-(4-(6-Amino-2-fluoropyridin-3-yl)-1H-imidazol-2-yl)-7-(3-chloro-2-fluoro-6-(1H-imidazol-5-yl)phenyl)-2,3,8,8a-tetrahydroindolizin-5(1H)-one]: the results for the half-maximal inhibitory concentration (IC50) at Factor XIa and on human plasma kallikrein (setting [1]) were 87 nM and 0.61 µM, respectively.

As to `O=C1C=C(c2c(-n3cc(C(F)(F)F)nn3)ccc(Cl)c2F)CC2CC[C@@H](c3ncc(-c4c[nH]c5ncncc45)[nH]3)N12` (stereo partly drawn) [Example 365, (3S)-3-(5-(7H-pyrrolo[2,3-d]pyrimidin-5-yl)-1H-imidazol-2-yl)-7-(3-chloro-2-fluoro-6-(4-(trifluoromethyl)-1H-1,2,3-triazol-1-yl)phenyl)-2,3,8,8a-tetrahydroindolizin-5(1H)-one], the half-inhibitory concentration (IC50) at Factor XIa is 2.7 nM; on human plasma kallikrein (setting [1]), 0.0073 µM.

Consider `O=C1C=C(c2c(-n3cnnn3)ccc(Cl)c2F)CC2CC[C@@H](c3ncc(-c4cn[nH]c4Cl)[nH]3)N12` (stereo partly drawn) [Example 366, (3S)-3-(5-(5-chloro-1H-pyrazol-4-yl)-1H-imidazol-2-yl)-7-(3-chloro-2-fluoro-6-(1H-tetrazol-1-yl)phenyl)-2,3,8,8a-tetrahydroindolizin-5(1H)-one], for which the figures for the half-maximal inhibitory concentration (IC50) on Factor XIa and on human plasma kallikrein (setting [1]) were 1.4 nM and 0.019 µM, respectively.

With `CS(=O)(=O)Nc1nccc(-c2cnc([C@@H]3CC[C@@H]4CC(c5c(-n6cnnn6)ccc(Cl)c5F)=CC(=O)N43)[nH]2)c1F` [Example 367, N-(4-(2-((3S,8aR)-7-(3-chloro-2-fluoro-6-(1H-tetrazol-1-yl)phenyl)-5-oxo-1,2,3,5,8,8a-hexahydroindolizin-3-yl)-1H-imidazol-5-yl)-3-fluoropyridin-2-yl)methanesulfonamide], the IC50 on Factor XIa was 0.4 nM; at human plasma kallikrein (setting [1]), 0.0075 µM.

Regarding `CNc1ccc(-c2cnc([C@@H]3CCC4CC(c5c(-n6cnnn6)ccc(Cl)c5F)=CC(=O)N43)[nH]2)c(F)n1` (stereo partly drawn) [Example 368, (3S)-7-(3-chloro-2-fluoro-6-(1H-tetrazol-1-yl)phenyl)-3-(5-(2-fluoro-6-(methylamino)pyridin-3-yl)-1H-imidazol-2-yl)-2,3,8,8a-tetrahydroindolizin-5(1H)-one], the half-maximal inhibitory concentration (IC50) at Factor XIa was 0.7 nM; at human plasma kallikrein (setting [1]), 0.0074 µM.

For the compound `O=C(Nc1ccccc1-c1c[nH]c([C@@H]2CC[C@@H]3CC(c4c(-n5cnnn5)ccc(Cl)c4F)=CC(=O)N32)n1)C1CC1` [Example 369, N-(2-(2-((3S,8aR)-7-(3-chloro-2-fluoro-6-(1H-tetrazol-1-yl)phenyl)-5-oxo-1,2,3,5,8,8a-hexahydroindolizin-3-yl)-1H-imidazol-4-yl)phenyl)cyclopropanecarboxamide], the figures for the IC50 on Factor XIa and on human plasma kallikrein (setting [1]) were 0.2 nM and 0.0005 µM, respectively.

With `O=C(Nc1cnccc1-c1c[nH]c([C@@H]2CCC3CC(c4c(-n5cnnn5)ccc(Cl)c4F)=CC(=O)N32)n1)C1CC1` (stereo partly drawn) [Example 370, N-(4-(2-((3S)-7-(3-chloro-2-fluoro-6-(1H-tetrazol-1-yl)phenyl)-5-oxo-1,2,3,5,8,8a-hexahydroindolizin-3-yl)-1H-imidazol-4-yl)pyridin-3-yl)cyclopropanecarboxamide], the half-maximal inhibitory concentration (IC50) at Factor XIa is 0.2 nM; on human plasma kallikrein (setting [1]), 0.0009 µM.

For `O=C1C=C(c2c(-n3cnnn3)ccc(Cl)c2F)C[C@H]2CC[C@@H](c3ncc(-c4cc(F)ncc4Cl)[nH]3)N12` [Example 371, (3S,8aR)-7-(3-chloro-2-fluoro-6-(1H-tetrazol-1-yl)phenyl)-3-(5-(5-chloro-2-fluoropyridin-4-yl)-1H-imidazol-2-yl)-2,3,8,8a-tetrahydroindolizin-5(1H)-one], the IC50 at Factor XIa worked out at 36.3 nM; at human plasma kallikrein (setting [1]) it was 0.0565 µM.

For the compound `Nc1cc(-c2[nH]c([C@@H]3CC[C@@H]4CC(c5c(-n6cnnn6)ccc(Cl)c5F)=CC(=O)N43)nc2Cl)ccn1` [Example 372, (3S,8aR)-3-(5-(2-aminopyridin-4-yl)-4-chloro-1H-imidazol-2-yl)-7-(3-chloro-2-fluoro-6-(1H-tetrazol-1-yl)phenyl)-2,3,8,8a-tetrahydroindolizin-5(1H)-one], the IC50 at Factor XIa is 0.3 nM; on human plasma kallikrein (setting [1]), 0.0012 µM.

In the case of `O=C(O)c1ccc(-c2c[nH]c(C3CCC4CC(c5cc(Cl)ccc5-n5cc(C(F)(F)F)nn5)=CC(=O)N43)n2)s1` (stereo not shown) [Example 373, 5-(2-(7-(5-chloro-2-(4-(trifluoromethyl)-1H-1,2,3-triazol-1-yl)phenyl)-5-oxo-1,2,3,5,8,8a-hexahydroindolizin-3-yl)-1H-imidazol-4-yl)thiophene-2-carboxylic acid], the IC50 was determined as 0.7 nM on Factor XIa and 0.0396 µM at human plasma kallikrein (setting [1]).

As to `CC1=CCc2c(-c3cnc(C4CCC5CC(c6c(-n7cnnn7)ccc(Cl)c6F)=CC(=O)N54)[nH]3)ccnc21` (stereo not shown) [Example 374, 7-(3-chloro-2-fluoro-6-(1H-tetrazol-1-yl)phenyl)-3-(5-(7-methyl-5H-cyclopenta[b]pyridin-4-yl)-1H-imidazol-2-yl)-2,3,8,8a-tetrahydroindolizin-5(1H)-one], the IC50 was 0.8 nM at Factor XIa and 0.0015 µM at human plasma kallikrein (setting [1]).

For the compound `Nc1ccc(-c2cnc([C@@H]3CC[C@@H]4CC(c5cc(Cl)ccc5-n5cnnn5)CC(=O)N43)[nH]2)c(F)n1` (stereo partly drawn) [Example 376, (3S,8aR)-3-(5-(6-amino-2-fluoropyridin-3-yl)-1H-imidazol-2-yl)-7-(5-chloro-2-(1H-tetrazol-1-yl)phenyl)hexahydroindolizin-5(1H)-one], the IC50 is 7.3 nM at Factor XIa and 0.209 µM at human plasma kallikrein (setting [1]).

Regarding `O=C1C[C@H](c2c(-n3cnnn3)ccc(Cl)c2F)C[C@H]2CC[C@@H](c3ncc(-c4ccnc(CO)c4F)[nH]3)N12` [Example 378, (3S,7R,8aR)-7-(3-chloro-2-fluoro-6-(1H-tetrazol-1-yl)phenyl)-3-(5-(3-fluoro-2-(hydroxymethyl)pyridin-4-yl)-1H-imidazol-2-yl)hexahydroindolizin-5(1H)-one], the IC50 on Factor XIa worked out at 14.5 nM; at human plasma kallikrein (setting [1]), 0.115 µM.

For `O=C1C=C(c2c(-n3cnnn3)ccc(Cl)c2F)C[C@H]2CC[C@@H](c3ncc(-c4c[nH]c5ncncc45)[nH]3)N12` [Example 379, (3S,8aR)-3-(5-(7H-pyrrolo[2,3-d]pyrimidin-5-yl)-1H-imidazol-2-yl)-7-(3-chloro-2-fluoro-6-(1H-tetrazol-1-yl)phenyl)-2,3,8,8a-tetrahydroindolizin-5(1H)-one], the IC50 at Factor XIa was determined as 0.6 nM; at human plasma kallikrein (setting [1]), 0.0022 µM.

As to `Nc1nccc(-c2cnc([C@@H]3CC[C@@H]4CC(c5c(-n6cnnn6)ccc(Cl)c5F)=CC(=O)N43)[nH]2)c1Cl` [Example 380, (3S,8aR)-3-(5-(2-amino-3-chloropyridin-4-yl)-1H-imidazol-2-yl)-7-(3-chloro-2-fluoro-6-(1H-tetrazol-1-yl)phenyl)-2,3,8,8a-tetrahydroindolizin-5(1H)-one], the results for the concentration for half-maximal inhibition (IC50) on Factor XIa and on human plasma kallikrein (setting [1]) were 0.8 nM and 0.0042 µM, respectively.

As for `Cc1cc2c(-c3cnc([C@@H]4CCC5CC(c6c(-n7cnnn7)ccc(Cl)c6F)=CC(=O)N54)[nH]3)c[nH]c2cn1` (stereo partly drawn) [Example 381, (3S)-7-(3-chloro-2-fluoro-6-(1H-tetrazol-1-yl)phenyl)-3-(5-(5-methyl-1H-pyrrolo[2,3-c]pyridin-3-yl)-1H-imidazol-2-yl)-2,3,8,8a-tetrahydroindolizin-5(1H)-one], the IC50 at Factor XIa was 17.1 nM; at human plasma kallikrein (setting [1]), 0.0136 µM.

Regarding `O=C1Cc2ccc(-c3cnc([C@@H]4CCC5CC(c6c(-n7cnnn7)ccc(Cl)c6F)=CC(=O)N54)[nH]3)c(F)c2N1` (stereo partly drawn) [Example 383, 6-(2-((3S)-7-(3-chloro-2-fluoro-6-(1H-tetrazol-1-yl)phenyl)-5-oxo-1,2,3,5,8,8a-hexahydroindolizin-3-yl)-1H-imidazol-5-yl)-7-fluoroindolin-2-one], the results for the IC50 on Factor XIa and on human plasma kallikrein (setting [1]) were 3.1 nM and 0.0126 µM, respectively.

Consider `O=C1C=C(c2c(-n3cnnn3)ccc(Cl)c2F)C[C@H]2CC[C@@H](c3ncc(-c4ccc5cc[nH]c5c4F)[nH]3)N12` [Example 384, (3S,8aR)-7-(3-chloro-2-fluoro-6-(1H-tetrazol-1-yl)phenyl)-3-(5-(7-fluoro-1H-indol-6-yl)-1H-imidazol-2-yl)-2,3,8,8a-tetrahydroindolizin-5(1H)-one], for which the IC50 on Factor XIa turned out to be 1.7 nM; at human plasma kallikrein (setting [1]), 0.0066 µM.
